The target in this assay is T1, TFAM (mitochondrial transcription factor A) (Homo sapiens, UniProt Q00059).
T1 construct: endogenous protein in intact human HepG2 cells
T1 sequence (Q00059 43-246): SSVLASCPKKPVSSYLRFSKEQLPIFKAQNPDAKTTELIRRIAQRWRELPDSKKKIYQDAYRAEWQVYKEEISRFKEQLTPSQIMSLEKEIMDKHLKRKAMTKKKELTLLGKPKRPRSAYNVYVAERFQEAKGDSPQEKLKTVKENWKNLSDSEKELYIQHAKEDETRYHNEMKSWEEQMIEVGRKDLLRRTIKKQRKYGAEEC
As to the kind of experiment: cellular thermal shift assay (CETSA), Western blot. Type of assay: cell-based. Conditions: intact cells incubated 2 h with or without OA, heated 3 min at 43 to 70 °C; rightward shift of melting curve. Background: In western blotting, separated proteins are transferred to a membrane and probed.

For `COc1c(O)cc2oc(-c3ccccc3)cc(=O)c2c1O` [Oroxylin A], the thermal shift entry is recorded as “thermal shift assays showed a significant rightward shift in the thermal melting curve upon OA administration”.

(Values after paper PMC11676196, “Inhibition of TFAM-Mediated Mitophagy by Oroxylin A Restored Sorafenib Sensitivity Under Hypoxia Conditions in HepG2 Cells” (Pharmaceuticals, 2024).)
